One data set concerns lymphocyte. The following applies: three female pigs, 60 mg/kg IV over 1 hour, the following day. How it is done:
The protocol and design of all parts of this study were approved by the Animal Research Ethics Committee of Israel. Three female pigs (The Institute of Animal Research, Kibbutz Lahav, Israel) weighing 60 Kg each, were anesthetized with 10 mg/kg intramuscular ketamine hydrochloride and 4 mg/kg xylazine hydrochloride (Vetmarket, Israel). One ovary of each pig was exposed by a longitudinal midline incision. A conventional gastric band (Lap-band; Allergen, Irvine, Calif., USA) was modified according to some embodiments of the invention, to occlude blood flow to the ovaries. The band was wound around the ovarian hilum, and a zip tie was placed on the center of the band ring to reduce the diameter of the band's aperture. 10 ml saline was injected via the band's port thus completely blocking blood flow through the ovarian and uterine arteries and veins. The color and the morphology of the ovary were observed after occlusion of blood flow as well as after the bands were released. The other ovary in each pig was left unprotected (i.e. was left with natural blood flow, and thus completely exposed to chemotherapy). Heparin was administered intravenously before occlusion to prevent or reduce blood coagulation within the ovary throughout the occlusion time interval and a few hours thereafter. A control pig was left untreated. […]

The next data set relates to ovary. The following applies: eight days after treatment. How it is done: The protocol and design of all parts of this study were approved by the Animal Research Ethics Committee of Israel. Three female pigs (The Institute of Animal Research, Kibbutz Lahav, Israel) weighing 60 Kg each, were anesthetized with 10 mg/kg intramuscular ketamine hydrochloride and 4 mg/kg xylazine hydrochloride (Vetmarket, Israel). One ovary of each pig was exposed by a longitudinal midline incision. A conventional gastric band (Lap-band; Allergen, Irvine, Calif., USA) was modified according to some embodiments of the invention, to occlude blood flow to the ovaries. The band was wound around the ovarian hilum, and a zip tie was placed on the center of the band ring to reduce the diameter of the band's aperture. 10 ml saline was injected via the band's port thus completely blocking blood flow through the ovarian and uterine arteries and veins. The color and the morphology of the ovary were observed after occlusion of blood flow as well as after the bands were released. The other ovary in each pig was left unprotected (i.e. was left with natural blood flow, and thus completely exposed to chemotherapy). Heparin was administered intravenously before occlusion to prevent or reduce blood coagulation within the ovary throughout the occlusion time interval and a few hours thereafter. A control pig was left untreated.
The ovaries blood supply was occluded for 16 hours after the drug administration interval (i.e. a total occlusion time interval exceeding 17 hours). The bands were then opened by drawing out the 10 ml of saline via the port.
Eight days after the chemo treatment the pigs were euthanized according to animal ethics procedures and the ovaries were removed and examined visually, removed, weighed and follicles were counted.

Values joined by “and” are separate entries in the source; they are usually repeats but may differ in a detail not shown here. Identical values can stand only once.

Regarding `O=P1(N(CCCl)CCCl)NCCCO1` (stereo not shown) [Cyclophosphamide], the “lymphocyte counts, decreased to % of the initial level” value with lymphocyte is listed as 12%. The “size and number of follicles of occluded (protected) ovaries” value in the data set on ovary (all ovaries occluded during chemotherapy administration) is listed as “comparable to the control animal”. For the same compound, in the data set on ovary (ovary with blood supply occluded by band for more than 17 hours, 60 mg/kg IV over 1 hour, one value per pig, 60 mg/kg), the “Weight of ovary, Occluded” value is 3.6 gr and 3.8 gr and 5.2 gr. In the data set on ovary (unprotected ovaries, in two of the three animals), the “visual appearance of unprotected ovaries” value is on record as “visible signs of atrophy”.

The values are drawn from US20140249573A1, “METHODS AND DEVICES FOR OCCLUDING BLOOD FLOW TO AN ORGAN” (A.A. CASH TECHNOLOGY LTD., priority 2011, published 2014).
